Assay results as given in publication PMC9239272 (mBio, 2022).

Tests used:
[1] = tested on: SARS2 M^pro; format: cell-based, SARS-CoV-2
[2] = tested on: NL63 M^pro; conditions: in vitro studies; cited from earlier work
[3] = tested on: NL63 M^pro; format: cell-based, HCoV-NL63; conditions: 2-fold dilution series beginning at 100 μM
[4] = tested on: SARS2 M^pro; format: cell-based, SARS-CoV-2; remark: listed apart in the source
[5] = tested on: 229E M^pro; format: cell-based, HCoV-229E
[6] = tested on: 293T cells

CCCCCCNC(=O)n1cc(F)c(=O)[nH]c1=O [Carmofur]
dose responsiveness of WT Luc reporter [1]: tested negative at all concentrations

CCOc1ccc2nc3cc(N)ccc3c(N)c2c1 [Ethacridine]
dose responsiveness of WT Luc reporter [1]: tested negative at all concentrations

CC(C)(C)NC(=O)N[C@H](C(=O)N1C[C@H]2[C@@H]([C@H]1C(=O)NC(CC1CCC1)C(=O)C(N)=O)C2(C)C)C(C)(C)C (some centres unmarked) [boceprevir]
IC50 [2]: ~100 µM
maximal signal increase over background [3]: 1.9 fold
restoration of eGFP fluorescence of WT reporter [4]: comparatively modest increase in signal
maximal signal increase over background [5]: 4.3 fold
increase in signal of luciferase construct compared with eGFP construct [1]: ~ 3 fold
maximal signal increase over background [1]: 16 fold

O=c1c2ccccc2[se]n1-c1ccccc1 [ebselen]
dose responsiveness of WT Luc reporter [1]: tested negative at all concentrations

Cc1ccc(NC(=O)c2ccc(CN3CCN(C)CC3)cc2)cc1Nc1nc(-c2cccnc2)cs1 [masitinib]
dose responsiveness of WT Luc reporter [1]: tested negative at all concentrations

CC(C)(C)[C@H](NC(=O)C(F)(F)F)C(=O)N1C[C@H]2[C@@H]([C@H]1C(=O)N[C@H](C#N)C[C@@H]1CCNC1=O)C2(C)C [nirmatrelvir]
dose responsiveness of WT Luc reporter [1]: highest reporter signals at all tested concentrations

GC376
maximal signal increase over background [3]: 24 fold
restoration of eGFP fluorescence of WT reporter [4]: strong restoration of expression and eGFP fluorescence
maximal signal increase over background [5]: 72 fold
dose responsiveness of WT Luc reporter [1]: causes increased reporter expression
increase in signal of luciferase construct compared with eGFP construct [1]: ~ 3 fold
maximal signal increase over background [1]: 100 fold
cell viability ([6]; 48 h incubation, wide range of concentrations): cell viabilities remain consistent

GRL-0496
dose responsiveness of WT Luc reporter [1]: clear positive dose response
cytotoxicity [6]: no cytotoxicity
